Laboratory results published in patent US6737423B2, “Substituted heterocyclo-norbornylamino derivatives, processes for their preparation, their use as medicaments or diagnostics, and medicaments comprising them” (Aventis Pharma Deutschland GmbH, priority 2000, dated 2004).
Where a name gives a salt, the structure may show the parent alone.

Tests used:
[1] = test system: Caco-2 cell line; experiment: Caco 2 model (transport through Caco-2 monolayers, absorbed fraction); format: in vitro ADME; conditions: apical to basolateral, pH 7.8, 37° C., test concentration 1 mM / 100 μM, from Papp via sigmoidal calibration curve
Procedure: The Caco-2 cell line was acquired from the American Type Culture Collection (ATCC) and maintained in Dulbecco's Modified Eagle medium (high glucose content), supplemented with nonessential amino acids, L-glutamine, penicillin/streptomycin, and 10% strength fetal calf serum. The Caco-2 cell line was then kept in an incubator under a 10% strength CO2 atmosphere at 95% strength relative humidity and 37° C. The cells were grown in cell culture flasks (175 cm^2). For the transport investigations, the Caco-2 cells were inoculated into polycarbonate cell culture inserts (costar Transwells®, pore size: 3 μm, area: 4.71 cm^2) at a cell density of 6.5×10^4 cells/cm^2 and incubated in six-well culture plates with a change of medium after 4 and 8 days and then every second day thereafter. 21 to 25 day-old monolayers were used for the experiments.
In each test series, a 21 day-old monolayer was tested for its properties with ^3H-dextran as a permeability marker. The value of the transfer rate (cumulative) had to be in the range of 2% after 120 min.
After eliminating the growth medium from the apical and the basolateral side, the monolayers were rinsed with the transport buffer (Hank's balanced salt solution, pH 7.8; containing 2.8 g/l glucose).The cells were then equilibrated for 15 min at 37° C. under a 10% strength C02 atmosphere. The HBSS buffer was then removed. The test compounds were dissolved in a mixture of HBSS buffer and DMSO and added to the apical buffer such that a 1% strength (v/v) DMSO solution resulted. The test concentration in the first experiment was 1 mM, and 100 μM in the second. The experiments were carried out at 37° C. and started by the addition of 1.5 ml of test solution to the donor side (apical). Transport buffer without compound was added to the recipient side (basolateral, 2.5 ml). At various points in time, samples were taken from the basolateral side (1 ml) and replaced by fresh buffer solution at 37° C. […]
The compounds were analyzed by means of HPLC.
The apparent permeability coefficient (Papp) was calculated by means of the following equation: [formula]
wherein dc/dt is the flow through the monolayer (μg of compound/ml x s), V is the liquid volume in the collection chamber (ml), A is the surface area size of the monolayer (cm^2) and c0 is the initial concentration (μg of compound/ml) in the donor chamber. The flow through the monolayer was calculated from the cumulative basolateral concentration at the appropriate point in time with the aid of the initially linear data curve (linear up to 60 min). The respective determinations were made in triplicate, such that the calculated Papp value represents the mean of three measurements. […]

[2] = target: T1, Rat NHE3 (Rattus norvegicus, UniProt P26433); experiment: NHE activity measurement (pHi recovery after acid load, transfected LAP1 cells); format: cell-based; conditions: stably transfected LAP1 cells, pH recovery recorded for 3 minutes, BCECF
T1 construct: expressed in transfected cells; host or cells: LAP1 (NHE-deficient cell line), stably transfected with pMAMneo plasmid
T1 sequence (P26433 29-831): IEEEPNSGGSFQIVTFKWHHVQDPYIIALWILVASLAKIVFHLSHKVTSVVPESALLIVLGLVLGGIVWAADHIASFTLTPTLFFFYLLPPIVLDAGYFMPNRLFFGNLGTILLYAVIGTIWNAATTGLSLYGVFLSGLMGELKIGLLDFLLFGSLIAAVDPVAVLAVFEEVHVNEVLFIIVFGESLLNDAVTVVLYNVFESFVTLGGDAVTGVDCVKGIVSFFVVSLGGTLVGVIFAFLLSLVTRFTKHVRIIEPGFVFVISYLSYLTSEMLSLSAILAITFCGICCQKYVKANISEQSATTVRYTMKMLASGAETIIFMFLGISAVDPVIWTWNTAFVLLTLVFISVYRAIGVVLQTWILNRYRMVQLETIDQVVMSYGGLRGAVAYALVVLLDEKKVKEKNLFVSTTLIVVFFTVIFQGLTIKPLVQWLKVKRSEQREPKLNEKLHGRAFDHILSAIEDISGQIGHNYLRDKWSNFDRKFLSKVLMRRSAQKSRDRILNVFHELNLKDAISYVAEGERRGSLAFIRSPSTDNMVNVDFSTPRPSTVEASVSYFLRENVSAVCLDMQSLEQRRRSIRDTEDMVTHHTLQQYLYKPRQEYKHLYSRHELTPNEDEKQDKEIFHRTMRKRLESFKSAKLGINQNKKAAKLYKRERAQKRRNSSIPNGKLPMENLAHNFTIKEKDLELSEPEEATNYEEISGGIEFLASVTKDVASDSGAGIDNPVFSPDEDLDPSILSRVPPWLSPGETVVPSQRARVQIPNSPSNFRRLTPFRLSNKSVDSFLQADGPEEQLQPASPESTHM
From the text: In the context of our studies, stably transfected cell lines were produced that in each case expressed one of the following NHE subtypes: Human NHE1 (Sardet et al. Cell 56:271-280 (1989)), rabbit NHE2 (Tse et al.; J. Biol. Chem. 268:11917-11924 (1993)), human NHE3 (Brant et al. Am. J. Physiol. 269 (Cell Physiol. 38) C198-C206 (1995)), or rat NHE3 (Orlowski et al.; J. Biol. Chem. 267:9331-9339 (1992)).
The cDNA clones of the respective NHE subtypes obtained by Prof. Pouyssegur were, after addition of suitable linker sequences, cloned into the expression plasmid pMAMneo (obtainable, for example, via CLONTECH, Heidelberg) such that the recognition sequence for the restriction endonuclease Nhel of the plasmid was approximately 20-100 Basepairs before the start codon of the respective NHE subtype and that the total coding sequence was present in the construct. In the case of the human NHE3 obtained from human kidney mRNA by means of RT-PCR, the RT-PCR primers were selected such that the cDNA band obtained had cleavage sites suitable for pMAMneo at its ends.
Using the “calcium phosphate method” (described in chapter 9.1 of “Current Protocols in Molecular Biology”), the NHE-deficient cell line LAP1 (Franchi et al.; Proc. Natl. Acad. Sci. USA 83:9388-9392 (1986)) was transfected with the plasmids that received the respective coding sequences of the NHE subtypes. […]
In this test, the recovery of the intracellular pH (pHi) after an acidification, which in the case of functional NHE occurs even under bicarbonate-free conditions, was determined. For this, the pHi was determined using the pH-sensitive fluorescent dye BCECF (Calbiochem, where the precursor BCECF-AM is employed). […] The BCECF fluorescence was determined in a “Ratio Fluorescence Spectrometer” (Photon Technology International, South Brunswick, N.J., USA) at excitation wavelengths of 505 and 440 nm and an emission wavelength of 535 nm and converted into the pHi by means of calibration curves. […]

[3] = test system: NHE3; conditions: NHE3 inhibitor; cited from earlier work

Row | SMILES | Absorbed fraction [1] [%] | IC50 [2] [µM] | also measured
1 | c1cncc(CN[C@@H]2C[C@@H]3C[C@H]2[C@@H]2CCCC[C@H]32)c1 (as salt: hydrochloride) [Example 8, exo/endo-(decahydro-1,4-methanonaphthalen-2-yl)-pyridin-3-ylmethyl-amine Hydrochloride] |  |  | melting point: 283 to 285 °C
2 | c1cncc(CN[C@@H]2C[C@@H]3C[C@H]2[C@@H]2CCC[C@H]32)c1 (racemic) [Example 1, (rac)-exo/endo-(octahydro-4,7-methanoinden-5-yl)pyridin-3-ylmethylamine Hydrochloride] | 100 | 0.34 | 
3 | c1cncc(CN[C@@H]2C[C@@H]3C[C@H]2[C@H]2CCC[C@@H]32)c1 (relative stereo) [Example 6, exo/exo-(octahydro-4,7-methanoinden-5-yl)-pyridin-3-ylmethylamine Hydrochloride] |  | 2.1 | 
4 | c1csc(CN[C@@H]2C[C@@H]3C[C@H]2[C@@H]2CCC[C@H]32)c1 [Example 5, exo/endo-(octahydro-4,7-methanoinden-5-yl)-thiophen-2-ylmethylamine Hydrochloride] |  | 2.9 | 
5 | CC(C)[C@@H](CC[C@@H](C)[C@H]1CC[C@H]2[C@@H]3[C@H](O)C[C@H]4C[C@@H](NCCCNCCCCN)CC[C@]4(C)[C@H]3CC[C@]12C)OS(=O)(=O)O [squalamine] |  |  | time to reach maximum potency [3]: only after approximately one hour

Continued, in another order:

Row | Absorbed fraction [1] [%] | IC50 [2] [µM] | SMILES | also measured
6 | 100 |  | c1cnc(CN[C@@H]2C[C@@H]3C[C@H]2[C@@H]2CCC[C@H]32)cn1 (racemic) [Example 18] | 
7 | <1 |  | C/C(=C\c1cccc(/C=C(\C)C(=O)N=C(N)N)c1)C(=O)N=C(N)N.Cl.Cl [S 2120, reference compound] | 
8 | <5 |  | C/C(=C\c1cc(C)ccc1/C=C(\C)C(=O)NC(=N)N)C(=O)N=C(N)N [S 3226, reference compound] | 
